Assay results reported in patent US20250304644A1, “PEPTIDES TRIPLE AGONISTS OF GIP, GLP-1 AND GLP-2” (BAINAN BIOTECH APS, priority 2021, published 2025).
Where two headings read alike, the source gives them in different places. *1 amine or outer side, *2 acyl side, *3 side chain or, on linkers, in order; H or OH if unused. Where no end group is shown, it is not given here. Side-chain parts run from the residue outwards. [ ]: non-standard residue; d: D form. The star is where a group is joined. C18 diacid = O=C(O)CCCCCCCCCCCCCCCCC(=O)*; γGlu = O=C(O)[C@H](CCC(=O)[*:2])N[*:1]; AEEA = NCCOCCOCC(=O)O; Aib = CC(C)(N)C(=O)O

Experiments:
Format in all cases: cell-based
human SNP-tagged GLP-2R = biological target: T1, human SNP-tagged GLP-2R (Homo sapiens, UniProt O95838); assay: Receptor internalization assay, HEK293A cells expressing human SNAP-tagged GLP-2R; conditions: for Absolute hGLP-2R internalization (AUC): AUC of sigmoid curves up to 1 μM, 60 minutes at 37° C.; for GLP-2R internalization (in words): compared to native GLP-2; for Relative hGLP-2R internalization (%): relative to native ligand = 100
T1 construct: expressed in transfected cells; host or cells: HEK293A
T1 sequence (O95838 1-553): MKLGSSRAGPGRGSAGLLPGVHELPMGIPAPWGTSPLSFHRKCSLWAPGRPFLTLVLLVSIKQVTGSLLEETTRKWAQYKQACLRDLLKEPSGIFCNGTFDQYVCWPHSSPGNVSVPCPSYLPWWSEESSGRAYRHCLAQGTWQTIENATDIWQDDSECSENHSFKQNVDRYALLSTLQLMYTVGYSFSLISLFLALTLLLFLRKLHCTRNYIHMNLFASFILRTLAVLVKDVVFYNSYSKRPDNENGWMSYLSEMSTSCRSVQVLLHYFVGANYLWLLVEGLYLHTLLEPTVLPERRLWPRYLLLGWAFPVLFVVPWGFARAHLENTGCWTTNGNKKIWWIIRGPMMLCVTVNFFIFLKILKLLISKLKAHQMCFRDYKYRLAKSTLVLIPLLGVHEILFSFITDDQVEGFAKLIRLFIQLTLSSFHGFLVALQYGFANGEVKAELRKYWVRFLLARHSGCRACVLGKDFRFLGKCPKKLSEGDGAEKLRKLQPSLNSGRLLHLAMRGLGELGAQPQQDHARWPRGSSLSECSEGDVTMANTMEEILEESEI

human GLP-2R = biological target: T2, human GLP-2R (Homo sapiens, UniProt O95838); assay: cAMP assay (HitHunter) in transiently transfected COS-7 cells expressing human GLP-2R; conditions: for Emax: COS-7, normalized to highest concentration of the endogenous ligand, read-out: Efficacy GLP-2R (Emax); for EC50: cAMP, COS-7 cells, human GLP-2R
T2 construct: host or cells: COS-7
T2 sequence (O95838 1-553): T1 sequence (O95838 1-553)

human SNAP-tagged GIPR = biological target: T3, human SNAP-tagged GIPR (Homo sapiens, UniProt P48546); assay: Receptor internalization assay, HEK293A cells expressing human SNAP-tagged GIPR; conditions: for Absolute hGIPR internalization (AUC): AUC of sigmoid curves up to 1 μM, 60 minutes at 37° C.; for GIPR internalization (in words): compared to native GIP; for Relative hGIPR internalization (%): relative to hGIP 1-42 = 100
T3 construct: host or cells: HEK293A
T3 sequence (P48546 22-466): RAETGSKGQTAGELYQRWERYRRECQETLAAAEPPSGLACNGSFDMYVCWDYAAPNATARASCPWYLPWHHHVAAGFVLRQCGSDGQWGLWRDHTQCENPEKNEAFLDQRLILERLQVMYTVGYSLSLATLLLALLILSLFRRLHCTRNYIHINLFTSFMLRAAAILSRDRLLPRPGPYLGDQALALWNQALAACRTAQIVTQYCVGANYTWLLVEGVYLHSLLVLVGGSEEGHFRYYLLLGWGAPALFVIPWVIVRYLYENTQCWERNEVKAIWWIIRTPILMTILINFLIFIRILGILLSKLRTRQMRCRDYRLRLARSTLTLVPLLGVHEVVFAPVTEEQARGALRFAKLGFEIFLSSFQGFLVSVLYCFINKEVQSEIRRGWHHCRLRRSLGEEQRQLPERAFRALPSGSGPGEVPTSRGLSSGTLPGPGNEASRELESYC

human SNAP-tagged GLP-1R = biological target: T4, human SNAP-tagged GLP-1R (Homo sapiens, UniProt P43220); assay: Receptor internalization assay, HEK293A cells expressing human SNAP-tagged GLP-1R; conditions: for Absolute hGLP-1R internalization (AUC): AUC of sigmoid curves up to 1 μM, 60 minutes at 37° C.; for GLP-1R internalization (in words): compared to native GLP-1; for Relative hGLP-1R internalization (%): relative to hGLP-1 = 100
T4 construct: expressed in transfected cells; host or cells: HEK293A

human GIPR = biological target: T5, human GIPR (Homo sapiens, UniProt P48546); assay: cAMP assay (HitHunter) in transiently transfected COS-7 cells expressing human GIPR; conditions: for Emax: COS-7, normalized to highest concentration of the endogenous ligand, read-out: Efficacy GIPR (Emax); for EC50: cAMP, COS-7 cells, human GIPR
T5 construct: host or cells: COS-7
T5 sequence (P48546 22-466): T3 sequence (P48546 22-466)

human GLP-1R = biological target: T6, human GLP-1R (Homo sapiens, UniProt P43220); assay: cAMP assay (HitHunter) in transiently transfected COS-7 cells expressing human GLP-1R; conditions: for Emax: COS-7, normalized to highest concentration of the endogenous ligand, read-out: Efficacy GLP-1R (Emax); for EC50: cAMP, COS-7 cells, human GLP-1R
T6 construct: host or cells: COS-7

[1] = biological target: human glucagon receptor (GCGR) (Homo sapiens, UniProt P47871); assay: Gs activation measured as cAMP accumulation on human glucagon receptor (FIG. 1 radar plot); conditions: read-out: −p Log EC50 on human glucagon receptor (GCGR) (converted)
Source text: Here, the compounds 20, 21, 22, 28, 30, 31,32, 33, 34, 35 are shown in terms of their potencies in Gs activation, measured as CAMP accumulation, depicted in a radar plot. The numbers refer to −p Log EC50 values. […] The outer rings correspond to higher potencies, the inner rings correspond to lower potencies.

[2] = read-out: logEC50 GLP-1R (converted)

human glucagon receptor (GCGR), sequence (P47871 26-477): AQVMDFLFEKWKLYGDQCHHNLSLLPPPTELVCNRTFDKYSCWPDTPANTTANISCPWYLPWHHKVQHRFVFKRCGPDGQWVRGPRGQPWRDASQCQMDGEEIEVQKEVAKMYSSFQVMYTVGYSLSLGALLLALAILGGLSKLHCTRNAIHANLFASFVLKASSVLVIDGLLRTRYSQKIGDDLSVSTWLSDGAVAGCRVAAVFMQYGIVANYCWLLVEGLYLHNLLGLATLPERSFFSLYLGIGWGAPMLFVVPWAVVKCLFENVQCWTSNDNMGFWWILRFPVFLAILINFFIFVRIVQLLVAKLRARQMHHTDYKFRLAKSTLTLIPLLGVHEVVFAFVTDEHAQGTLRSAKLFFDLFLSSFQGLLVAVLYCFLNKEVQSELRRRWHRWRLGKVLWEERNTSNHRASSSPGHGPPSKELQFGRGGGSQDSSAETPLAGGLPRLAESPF
T4 sequence (P43220 24-463): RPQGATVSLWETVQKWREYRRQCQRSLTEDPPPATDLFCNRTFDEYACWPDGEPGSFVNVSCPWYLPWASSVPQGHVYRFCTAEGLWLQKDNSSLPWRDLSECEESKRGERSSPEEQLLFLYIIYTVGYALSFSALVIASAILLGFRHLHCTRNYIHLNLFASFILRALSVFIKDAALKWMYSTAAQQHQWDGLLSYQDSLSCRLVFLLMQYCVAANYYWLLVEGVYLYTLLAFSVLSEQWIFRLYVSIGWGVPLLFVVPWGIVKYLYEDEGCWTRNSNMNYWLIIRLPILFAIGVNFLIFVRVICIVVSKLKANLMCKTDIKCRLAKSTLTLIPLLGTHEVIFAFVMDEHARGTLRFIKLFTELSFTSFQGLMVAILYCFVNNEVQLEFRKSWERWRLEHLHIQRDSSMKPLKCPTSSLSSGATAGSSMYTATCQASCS
T6 sequence (P43220 24-463): as above

Absolute hGLP-2R internalization (AUC) (human SNP-tagged GLP-2R)	GLP-2R internalization (in words) (human SNP-tagged GLP-2R)	Relative hGLP-2R internalization (%) (human SNP-tagged GLP-2R)	Emax (human GLP-2R) [%]	EC50 (human GLP-2R; read-out: logEC50 GLP-2R (converted)) [nM]	Absolute hGIPR internalization (AUC) (human SNAP-tagged GIPR)	Relative hGIPR internalization (%) (human SNAP-tagged GIPR)	Absolute hGLP-1R internalization (AUC) (human SNAP-tagged GLP-1R)	GLP-1R internalization (in words) (human SNAP-tagged GLP-1R)	Relative hGLP-1R internalization (%) (human SNAP-tagged GLP-1R)	Emax (human GIPR) [%]	EC50 (human GIPR) [nM]	Emax (human GLP-1R) [%]	EC50 (human GLP-1R; [2]) [nM]	EC50 [1] [nM]	EC50 (human GLP-2R; read-out: EC50 (nM) GLP-2R) [nM]	EC50 (human GLP-1R; read-out: EC50 (nM) GLP-1R) [nM]	Substance	GIPR internalization (in words) (human SNAP-tagged GIPR)
39.4	comparable to native GLP-1 and GLP-2	81.0	100	0.316	14.2	38	91.8	comparable to native GLP-1 and GLP-2	109.14	112	0.126	112	0.0398	> 100			HADGTFTSDYSIILDK([AEEA-AEEA-γGlu-C18 diacid])LAARDFINWLIQTKGKKNDWKHNITQ-OH [Compound 20]	reduced internalization compared to native GIP
36.3	comparable to native GLP-1 and GLP-2	74.6	104		10.2	28	94.7	comparable to native GLP-1 and GLP-2	112.59	104	0.398	122		> 100	0.6	0.05	HADGTFTSDYSTILDK([AEEA-AEEA-γGlu-C18 diacid])LAARDFINWLIQTKGKKNDWKHNITQ-OH [Compound 21]	reduced internalization compared to native GIP
38.0	comparable to native GLP-1 and GLP-2	78.2	93		7.0	19	78.81	comparable to native GLP-1 and GLP-2	93.70	93	1.12	116	0.0316	> 100	0.6	0.04	HADGTFTSDYST[Aib]LDK([AEEA-AEEA-γGlu-C18 diacid])LAARDFINWLIQTKGKKNDWKHNITQ-OH [Compound 22]	reduced internalization compared to native GIP
